This passage reports IC50 results from patent US11584756B2, “Heterocyclic compounds as BET inhibitors” (NUVATION BIO INC., priority 2019, dated 2023).

The target in one test is BRD4-1 (Homo sapiens (Human), UniProt O60885). Briefly: Bromodomain and Extraterminal Domain (BET) binding assay, BRD4-1. Particulars: histone H4 peptide (1-21) K5/8/12/16Ac-biotin ligand; 20 nM protein, 20 nM ligand. The method, then: (§1) The bromodomain binding assays were performed by Reaction Biology Corp., Malvern, Pa., USA (www.reactionbiology.com). The BET binding assays were conducted in 384 well microplates in assay buffer (50 mM HEPES-HCl, pH 7.5, 100 mM NaCl, 1 mg/ml BSA, 0.05% CHAPS, and 0.5% DMSO) with compounds added as DMSO stocks at a single concentration or with 10-point dose response titrations. BET protein or assay buffer were delivered to the appropriate wells of the microplate. Test compound was then delivered by acoustic technology via a Labcyte Echo550 liquid handler. The microplate was centrifuged for 5 min and pre-incubated for 30 min at RT with gentle shaking. The ligand (histone H4 peptide (1-21) K5/8/12/16Ac-biotin) was delivered and the microplate was again centrifuged for 5 min and allowed to incubate for 30 min at RT with gentle shaking. Donor beads were then added in the absence of light and the microplate was centrifuged and gently shaken. After 5 min, acceptor beads were added in the absence of light and the microplate was centrifuged and gently shaken in the dark for 60 min. The microplate was read using a Perkin Elmer EnSpire Alpha plate reader (λ Ex/λ Em=680/520-620 nm). Percent inhibition was calculated relative to positive and negative controls on a per plate basis. For titration experiments, IC50 values were determined by fitting the percent inhibition versus compound concentration.

The next test addresses BRD4-2 (Homo sapiens (Human), UniProt O60885). Nature of the test: Bromodomain and Extraterminal Domain (BET) binding assay, BRD4-2. Particulars: histone H4 peptide (1-21) K5/8/12/16Ac-biotin ligand; 130 nM protein, 70 nM ligand. The method, then:
as §1

Test [1] relates to MV-4-11 human acute myeloid leukemia cell line. Briefly: Cell viability assay in MV-4-11 cells (Cell Titer-Glo). Particulars: MV4-11, 72 hrs incubation. It is filed as cell-based. The method, then:
The effects of test compounds were studied in a cell viability assay in the MV-4-11 human acute myeloid leukemia cell line. The cells were harvested during the logarithmic growth period and counted. Cells were seeded at a count of 15000 cells per well/100 μl. After seeding, cells were incubated at 37° C. 5% CO2 for 1 hr. Cells were treated with test compounds at 8 concentrations within a desired concentration range (e.g. 5 nM-10 μM) for generation of dose response curves by preparing serial dilutions of the test compound in DMSO which were further diluted with culture medium and then added to each well. The plate was further incubated for another 72 hrs in a humidified incubator at 37° C. and 5% CO2. The assay was terminated by addition of Cell Titer-Glo reagent (Promega, Madison, Wis.) at ¼ the volume of total medium per well. Contents were mixed, the plate was incubated for 10 min at room temperature and luminescence was measured. Cell viability data were plotted using GraphPad Prism (GraphPad Software, Inc., San Diego, Calif.). In addition, a nonlinear regression model with a sigmoidal dose response and variable slope within GraphPad Prism was used to calculate the IC50 value of individual test compounds.
On the technique in general: ATP-based viability assays read luminescence as a measure of living cells.

As to `C=C(C)c1ccc(Oc2c(C)cc(F)cc2C)c(-c2cn(C)c(=O)c3sc(C(=O)NCC)cc23)c1` [Compound 148, N-ethyl-4-(2-(4-fluoro-2,6-dimethylphenoxy)-5-(prop-1-en-2-yl)phenyl)-6-methyl-7-oxo-6,7-dihydrothieno[2,3-c]pyridine-2-carboxamide], the IC50 is above 10000 nM on BRD4-1, 103 nM at BRD4-2 and 1.28 µM in test [1].

Turning to `CCS(=O)(=O)Nc1ccc(Oc2c(C)cc(F)cc2C)c(-c2cn(C)c(=O)c3sc(-c4nc5ccccc5[nH]4)cc23)c1` [Compound 157, N-(3-(2-(1H-benzo[d]imidazol-2-yl)-6-methyl-7-oxo-6,7-dihydrothieno[2,3-c]pyridin-4-yl)-4-(4-fluoro-2,6-dimethylphenoxy)phenyl)ethane sulfonamide], the IC50 is above 10000 nM on BRD4-1, 145 nM on BRD4-2 and 0.55 µM in test [1].

As for `Cc1nnc(-c2cc3c(-c4cc(C(C)(C)O)ccc4Oc4c(C)cc(F)cc4C)cn(C)c(=O)c3s2)[nH]1` [Compound 152, 4-(2-(4-fluoro-2,6-dimethylphenoxy)-5-(2-hydroxypropan-2-yl)phenyl)-6-methyl-2-(5-methyl-4H-1,2,4-triazol-3-yl)thieno[2,3-c]pyridin-7(6H)-one], the IC50 at BRD4-1 turned out to be 1490 nM; at BRD4-2, 9 nM; in test [1], 0.536 µM.

With `CCS(=O)(=O)Nc1ccc(Oc2ccc(F)cc2F)c(-c2cn(C)c(=O)c3ccsc23)c1` [Compound 2.91, N-(4-(2,4-difluorophenoxy)-3-(5-methyl-4-oxo-4,5-dihydrothieno [3,2-c]pyridin-7-yl)phenyl)ethanesulfonamide], the figures for the IC50 on BRD4-1 and at BRD4-2 were 15 nM and 7.3 nM, respectively.

With `CNC(=O)c1cc2c(-c3cc(C(C)(C)O)ccc3Oc3c(C)cc(F)cc3C)cn(C)c(=O)c2s1` [Compound 150, 4-(2-(4-fluoro-2,6-dimethylphenoxy)-5-(2-hydroxypropan-2-yl)phenyl)-N,6-dimethyl-7-oxo-6,7-dihydrothieno[2,3-c]pyridine-2-carboxamide], the IC50 on BRD4-1 was determined as 3600 nM; on BRD4-2 it was 1.2 nM; in test [1], 0.193 µM.

As for `Cn1cc(-c2cc(C(C)(C)O)ccc2Oc2ccc(F)cc2F)c2cc(C(=O)N3CCC(F)(F)C3)sc2c1=O` [Compound 76, 4-(2-(2,4-difluorophenoxy)-5-(2-hydroxypropan-2-yl)phenyl)-2-(3,3-difluoropyrrolidin-1-carbonyl)-6-methylthieno[2,3-c]pyridin-7(6H)-one], the IC50 on BRD4-1 was 265 nM; at BRD4-2, 17 nM; in test [1], 0.879 µM.

For `Cn1cc(-c2cc(C(C)(C)O)ccc2Oc2ccc(F)cc2F)c2cc(C(=O)N3CCC(F)(F)CC3)sc2c1=O` [Compound 22, 4-(2-(2,4-difluorophenoxy)-5-(2-hydroxypropan-2-yl)phenyl)-2-(4,4-difluoropiperidine-1-carbonyl)-6-methylthieno[2,3-c]pyridin-7(6H)-one], the IC50 on BRD4-1 was found to be 638 nM; at BRD4-2 it was 11 nM; in test [1], 1.41 µM.

Regarding `Cn1cc(-c2cc(C(C)(C)O)ccc2Oc2ccc(F)cc2F)c2cc(C(=O)NC3(C(F)(F)F)CC3)sc2c1=O` [Compound 14, 4-(2-(2,4-difluorophenoxy)-5-(2-hydroxypropan-2-yl)phenyl)-6-methyl-7-oxo-N-(1-(trifluoromethyl)cyclopropyl)-6,7-dihydrothieno[2,3-c]pyridine-2-carboxamide], the IC50 on BRD4-1 turned out to be 1170 nM; on BRD4-2, 47 nM; in test [1] it was 0.768 µM.

`Cn1cc(-c2cc(C(C)(C)O)ccc2Oc2ccc(F)cc2F)c2cc(CN3CCCCC3)sc2c1=O` [Compound 7, 4-(2-(2,4-difluorophenoxy)-5-(2-hydroxypropan-2-yl)phenyl)-6-methyl-2-(piperidin-1-ylmethyl)thieno[2,3-c]pyridin-7(6H)-one]: the IC50 on BRD4-2 came to 497 nM; in test [1], 2.48 µM.

As for `Cc1cc(F)cc(C)c1Oc1ccc(C(C)(C)O)cc1-c1cn(C)c(=O)c2ccsc12` [Compound 2.1, 7-(2-(4-fluoro-2,6-dimethylphenoxy)-5-(2-hydroxypropan-2-yl)phenyl)-5-methylthieno[3,2-c]pyridin-4(5H)-one], the IC50 was determined as 2500 nM on BRD4-1, 19.8 nM at BRD4-2 and 0.47 µM in test [1].

For `Cn1cc(-c2cc(C(C)(C)O)ccc2Oc2ccc(F)cc2F)c2cc(C(=O)N3CCCCC3)sc2c1=O` [Compound 6, 4-(2-(2,4-difluorophenoxy)-5-(2-hydroxypropan-2-yl)phenyl)-6-methyl-2-(piperidine-1-carbonyl)thieno[2,3-c]pyridin-7(6H)-one], the IC50 on BRD4-1 was 1480 nM; at BRD4-2 it was 32 nM; in test [1], 1.79 µM.

Consider `Cc1cc(F)cc(C)c1Oc1ccc(C(C)(C)O)cc1-c1cn(C)c(=O)c2sc(-c3nc4ccccc4o3)cc12` [Compound 153, 2-(benzo[d]oxazol-2-yl)-4-(2-(4-fluoro-2,6-dimethylphenoxy)-5-(2-hydroxypropan-2-yl)phenyl)-6-methylthieno[2,3-c]pyridin-7(6H)-one], for which the IC50 is above 10000 nM on BRD4-1, 526 nM on BRD4-2 and 3.83 µM in test [1].

As to `C=C(C)c1ccc(Oc2c(C)cc(F)cc2C)c(-c2cn(C)c(=O)c3cc(C(=O)NCC)sc23)c1` [Compound 156, N-ethyl-7-(2-(4-fluoro-2,6-dimethylphenoxy)-5-(prop-1-en-2-yl)phenyl)-5-methyl-4-oxo-4,5-dihydrothieno[3,2-c]pyridine-2-carboxamide], the values for the IC50 on BRD4-1 and on BRD4-2 were above 10000 nM and 740 nM, respectively.

For `Cc1cc(F)cc(C)c1Oc1ccc(C(C)(C)O)cc1-c1cn(C)c(=O)c2sc(C(=O)Nc3ccccc3)cc12` [Compound 151, 4-(2-(4-fluoro-2,6-dimethylphenoxy)-5-(2-hydroxypropan-2-yl)phenyl)-6-methyl-7-oxo-N-phenyl-6,7-dihydrothieno[2,3-c]pyridine-2-carboxamide], the values for the IC50 (on BRD4-1; on BRD4-2; in test [1]) were 9380 nM, 3.2 nM and 0.282 µM, respectively.

On to `Cn1cc(-c2cc(C(C)(C)O)ccc2Oc2ccc(F)cc2F)c2sccc2c1=O` [Compound 2.3, 7-(2-(2,4-difluorophenoxy)-5-(2-hydroxypropan-2-yl)phenyl)-5-methylthieno[3,2-c]pyridin-4(5H)-one], for which the results for the IC50 (at BRD4-1; on BRD4-2; in test [1]) were 118 nM, 28.5 nM and 0.163 µM, respectively.

Take `CCNC(=O)c1cc2c(=O)n(C)cc(-c3cc(C(C)(C)O)ccc3Oc3ccc(F)cc3F)c2s1` [Compound 159, 7-(2-(2,4-difluorophenoxy)-5-(2-hydroxypropan-2-yl)phenyl)-N-ethyl-5-methyl-4-oxo-4,5-dihydrothieno[3,2-c]pyridine-2-carboxamide]: the IC50 on BRD4-1 worked out at 18 nM; at BRD4-2, 1.7 nM.

As for `CCN(CC)C(=O)c1cc2c(-c3cc(C(C)(C)O)ccc3Oc3c(C)cc(F)cc3C)cn(C)c(=O)c2s1` [Compound 155, N,N-diethyl-4-(2-(4-fluoro-2,6-dimethylphenoxy)-5-(2-hydroxypropan-2-yl)phenyl)-6-methyl-7-oxo-6,7-dihydrothieno[2,3-c]pyridine-2-carboxamide], the figures for the IC50 at BRD4-1 and on BRD4-2 were above 10000 nM and 4070 nM, respectively.

The IC50 is the concentration that inhibits the measured activity by half. The low end stands for greater potency in that assay, the high end for weaker potency in that assay.
